These results are taken from US20240166703A1, “ANTI-INFLAMMATORY PEPTIDE AND METHOD OF USE THEREOF” (The Regents of the University of California, priority 2021, published 2024).

Experiment [1] relates to constitutive nuclear transcription factor Oct1. As to the kind of experiment: EMSA of Oct1 binding to its probe, HeLa nuclear extracts. The format is cell-based, human. The following applies: peptide 10-50 μM. (In general: In EMSA bound probe runs differently from free probe, usually more slowly.)
The test system of experiment [2] is canonical NF-κB signaling through IKK2 in HeLa cells. As to the kind of experiment: Western blot of canonical NF-κB signaling in TNF-α-treated HeLa cells. Format: cell-based, human. The following applies: increasing peptide concentrations. As for the experimental part:
(§1) To prepare nuclear and cytoplasmic protein extracts, HeLa, MEF, and RAW 264.7 cells were lysed in buffer containing 4.3 mM Na2HPO4, 1.47 mM KH2PO4 pH 7.4, 137 mM NaCl, 2.7 mM KCl, 1 mM DTT, 0.05% (v/v) NP-40, and 1×protease inhibitor cocktail for 10 minutes on ice and spun at 3,000 rpm at 4° C. for 10 minutes. The supernatant containing the cytoplasmic fraction was quantified by Bio-Rad protein assay to determine the total amount of protein. Pellets were resuspended in nuclear extraction buffer (25 mM Tris-HCl pH 7.5, 420 mM NaCl, 10% glycerol, 0.2 mM EDTA, 1 mM DTT, 0.5 mM PMSF, 1×protease inhibitor cocktail) once and then subjected to three lysis cycles (freeze at −80° C. and thaw at 37° C.). Finally, samples were centrifuged at 13,000 rpm at 4° C. for 20 minutes, and supernatants containing the soluble nuclear fraction were measured by the Bio-Rad protein assay to determine the total amount of protein. Nuclear and cytoplasmic extracts were aliquoted and kept at −80° C.
(§2) HeLa, MEF, RAW 264.7 cells were cultured in Dulbecco's MEM containing 10% fetal bovine […] supplemented with penicillin and streptomycin, at 37° C. in a humidity incubator with 5% CO2. RAW 264.7 cells were seeded and allowed to adhere for 24 hours then treated with NEMO^ActPep or NEMO^ActPep 6G at different concentrations 60 min before the LPS challenge (100 ng/ml). After 2 hours, nuclear and cytoplasmic extracts were collected. HeLa and MEF cells seeded for 24 hours then treated with NEMO^ActPep or NEMO^ActPep 6G at different concentrations 60 min before the TNF-α challenge (10 ng/ml) for 15 minutes and then nuclear and cytoplasmic extracts were collected. MEF cells were treated with NEMO^ActPep or NEMO^ActPep 6G at different concentrations 1 hour before the LTβR challenge (300 ng/ml). After 24 hours whole cell extracts were collected and aliquoted and kept at −80° C. for further experiments.
(§3) Equivalent amounts of protein from cell extracts was separated by SDS-PAGE and transferred to polyvinylidene fluoride (PVDF) membranes (Millipore, Bedford, MA, USA). The membrane was blocked with 5% bovine serum albumin (BSA) for 1 hour at room temperature and then the membrane was incubated with the primary antibodies overnight at 4° C. Antibodies for IKK2, His, HA, Myc, GST, Ubiquitin, IκBα, phospho-IKK2, p65/ReIA, p84, γ-Actin, p100/52, phospho-ERK, phospho-JNK, phospho-p38, ERK, JNK, and p38 were used for detecting multiple specific protein targets. After binding of an appropriate secondary antibody coupled to horseradish peroxidase, the immunoreactive bands were visualized by enhanced chemiluminescence substrate.
The inhibitory effects of TAT-NEMO^ActPep were further verified on canonical NF-κB signaling in HeLa cells by assessing IKK2 activation loop phosphorylation, IκBα degradation, and NF-κB ReIA/p65 subunit subcellular localization. Consistent with the observations of decreased nuclear NF-κB DNA binding activity by EMSA, treatment with TAT-NEMO^ActPep blocked IKK2 phosphorylation, IκBα proteolysis, and nuclear translocation of ReIA (FIG. 5B).

For experiment [3], the system named is NF-κB DNA binding in RAW 264.7 murine macrophage cells. As to the kind of experiment: EMSA of NF-κB DNA binding, nuclear lysates of LPS-treated RAW 264.7 cells. The format is cell-based. As for the experimental part: as §1
HeLa, MEF, RAW 264.7 cells were cultured in Dulbecco's MEM containing 10% fetal bovine […] supplemented with penicillin and streptomycin, at 37° C. in a humidity incubator with 5% CO2. RAW 264.7 cells were seeded and allowed to adhere for 24 hours then treated with NEMO^ActPep or NEMO^ActPep 6G at different concentrations 60 min before the LPS challenge (100 ng/ml). After 2 hours, nuclear and cytoplasmic extracts were collected. […]
(§4) Electrophoretic mobility shift assay (EMSA) was performed using recombinant full length NF-κB ReIA homodimer as a positive control as previously described (45). […] The amount of protein in lysates was quantified by Bio-Rad protein assay. EMSA analysis with quantitative densitometry and signal intensity was quantitated using ImageJ software. […]
(§5) It was then tested if the observed effect is universal across species and cell types. […] The effect of TAT-NEMO^ActPep on NF-κB DNA binding was also analyzed in MEF cells by EMSA.

Experiment [4] deals with canonical NF-κB signaling through IKK2 in RAW 264.7 murine macrophage cells. As to the kind of experiment: Western blot of canonical NF-κB signaling in LPS-treated RAW 264.7 cells. The format is cell-based. The following applies: 100 ng/mL LPS for 2 hours. The protocol:
as §1, §2, §3
It was then tested if the observed effect is universal across species and cell types. The effect of TAT-NEMO^ActPep was tested in RAW 264.7 murine macrophage cells treated with 100 ng/mL purified bacterial lipopolysaccharide (LPS) for 2 hours. Again, NF-κB DNA binding and ReIA subunit nuclear localization were both inhibited as were phosphorylation of the IKK2 activation loop and degradation of IκBα. […] The effect of TAT-NEMO^ActPep on NF-κB DNA binding was also analyzed in MEF cells by EMSA.
Background: Immunoblotting shows a protein as a band on a membrane.

Experiment [5] has as its system NF-κB DNA binding in MEF cells. As to the kind of experiment: EMSA of NF-κB DNA binding in TNF-α-treated MEF cells. Format: cell-based, mouse. As to conditions: peptide 10-50 μM. As for the experimental part:
as §1, with “Pellets were resuspended in nuclear extraction buffer (25 mM Tris-HCl pH 7.5, 420 mM NaCl, 10% glycerol, 0.2 mM EDTA, 1 mM DTT, 0.5 mM PMSF, 1×protease inhibitor cocktail) once and then subjected to three lysis cycles (freeze at −80° C. and thaw at 37° C.).” left out, “Nuclear and cytoplasmic extracts were aliquoted and kept at −80° C.” left out
as §4, §5

Experiment [6] has as its system non-canonical NF-κB signaling (IKK1, p100 processing). As to the kind of experiment: Western blot of p100 processing after LTβR engagement (non-canonical NF-κB signaling). Format: cell-based. As to conditions: increasing peptide concentrations; HeLa cells per FIG. 5C legend. As for the experimental part: as §2
Equivalent amounts of protein from cell extracts was separated by SDS-PAGE and transferred to polyvinylidene fluoride (PVDF) membranes (Millipore, Bedford, MA, USA). The membrane was blocked with 5% bovine serum albumin (BSA) for 1 hour at room temperature and then the membrane was incubated with the primary antibodies overnight at 4° C. […]

The test system of experiment [7] is MAP kinases JNK, Erk2 and p38. As to the kind of experiment: Western blot of MAP kinase phosphorylation in TNF-α-treated HeLa cells. The format is cell-based, human. The protocol: as §3
It was also tested if TAT-NEMO^ActPep has any effect on non-canonical NF-κB signaling. This alternative NF-κB signaling pathway is activated in response to stimulation of specific cytokine receptors and leads to activation of IKK1 and consequent processing of the p100 precursor to the mature NF-κB subunit p52 (30,31). […] To further investigate the possible involvement of TAT-NEMO^ActPep in other signaling pathways, the effect of the peptide on MAPK activation was tested by monitoring the phosphorylation status of JNK, Erk2, and p38 upon TNF-α treatment of HeLa cells. […]

Entries after “also recorded” stand apart in the source; their conditions may differ.

For the substance “TAT-NEMO^ActPep: HIV-1 TAT fused flexibly to human NEMO amino acids 375-391; cell permeable version of NEMO activation peptide (SEQ ID NO 2) (YGRKKRRQRRRGGLSSPLALPSQRRSPPEE)”, the “binding of Oct1 to its probe (EMSA)” value in experiment [1] is listed as “not affected”. In experiment [2], the “IKK2 activation loop phosphorylation (western blot)” value is “blocked; also recorded: significantly diminished”, the “IκBα degradation / proteolysis (western blot)” value was “blocked; also recorded: significantly diminished” and the “NF-κB ReIA/p65 subunit nuclear localization (western blot)” value is given as “blocked; also recorded: significantly diminished”. Further, the “NF-κB activity by EMSA relative to TAT-NEMO^ActPep 6G, compared with HeLa cells” value in experiment [3] (LPS-treated RAW 264.7 nuclear lysates, peptide 5-55 μM) was “to a similar degree as that observed in HeLa cells”. For the same substance, the “NF-κB DNA binding” value in experiment [3] (RAW 264.7 cells, 100 ng/mL LPS for 2 hours) is “inhibited”. Also, in experiment [4], the “ReIA subunit nuclear localization (western blot)” value was “inhibited”, the “degradation of IκBα (western blot)” value was “inhibited” and the “phosphorylation of the IKK2 activation loop (western blot)” value is on record as “inhibited”. Further, the “NF-κB activation in response to TNF-α (EMSA)” value in experiment [5] was “inhibited NF-κB activation”. Also, the “processing of p100 in response to LTβR engagement (western blot)” value in experiment [6] is reported as “not observed any effect; also recorded: no change in the extent of p100 processing”. Also, the “phosphorylation of JNK, Erk2 and p38 MAP kinases (western blot)” value in experiment [7] is recorded as “Neither TAT-NEMO^ActPep nor TAT-NEMO^ActPep 6G influenced; also recorded: no effect”.
